Experiment [1] concerns the target T1, GR (pBIND-GR, GR-LBD/GAL4 DBD) (Homo sapiens, UniProt P04150).
T1 sequence (P04150 500-777): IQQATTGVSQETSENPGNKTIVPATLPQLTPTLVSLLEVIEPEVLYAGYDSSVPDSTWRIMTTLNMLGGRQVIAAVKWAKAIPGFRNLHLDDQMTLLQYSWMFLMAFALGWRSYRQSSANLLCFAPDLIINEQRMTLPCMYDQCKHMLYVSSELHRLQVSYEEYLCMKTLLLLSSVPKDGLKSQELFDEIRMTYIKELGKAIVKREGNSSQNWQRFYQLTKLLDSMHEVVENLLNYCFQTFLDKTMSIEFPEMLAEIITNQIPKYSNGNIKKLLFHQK
Format: cell-based. The following applies: for Induction: GR agonist, fold-induction, 384-well.

Experiment [2] relates to constitutive Renilla reporter expression in HEK293 cells. In words: Renilla luciferase internal control reporter. Format: cell-based. The note with it: E2 titration, treated/untreated (Fig. 5).

Structures are written as SMILES.

Consider `C[C@@H]1C[C@H]2[C@@H]3CCC4=CC(=O)C=C[C@]4(C)[C@@]3(F)[C@@H](O)C[C@]2(C)[C@@]1(O)C(=O)CO` [Dexamethasone, dexamethasone], for which, in experiment [1], the Induction is on record as 760.
Turning to `C[C@]12CCC(=O)C=C1CC[C@@H]1[C@@H]2[C@@H](O)C[C@]2(C=O)[C@@H](C(=O)CO)CC[C@@H]12` [aldosterone], in experiment [1], it took 21 µM to reach a half-maximal effect (EC50) and the Induction stood at 42.
Take `C[C@]12CC[C@@H]3c4ccc(O)cc4CC[C@H]3[C@@H]1CC[C@@H]2O` [17β-estradiol, 17β- estradiol]: the Renilla reporter induction result in experiment [2] is recorded as “around 1.0”.
`C[C@]12CCC(=O)C=C1CC[C@@H]1[C@@H]2[C@@H](O)C[C@@]2(C)[C@H]1CC[C@]2(O)C(=O)CO` [Hydrocortisone, hydrocortisone] registered an Induction in experiment [1] of 450.

These data come from PMC3115594 (Current Chemical Genomics, 2010).
